Data as given in ChEMBL document CHEMBL1201862, “PubChem BioAssay data set” (2004).
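Cells were grown in 96-well plates and exposed to each compound for 48 hours at five concentrations; endpoints were interpolated linearly between bracketing concentrations, or set to the highest concentration if not reached. The concentration for 50% growth inhibition is given as GI50.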 Calls of active or inactive are those of the source. No stated cut-off is given here; in the data, active = GI50 up to about 1.1 µM and inactive = higher.

Tests used:
Assay in all cases: inhibition of tumour cell growth, NCI panel, 48 h
MDA-MB-231 = test system: MDA-MB-231
UACC-257 = test system: UACC-257
SNB-75 = test system: SNB-75
NCI/ADR-RES = test system: NCI/ADR-RES
UACC-62 = test system: UACC-62
CAKI-1 = test system: CAKI-1
LOX IMVI = test system: LOX IMVI
SK-MEL-5 = test system: SK-MEL-5
HCC 2998 = test system: HCC 2998
OVCAR-5 = test system: OVCAR-5
HT-29 = test system: HT-29
HOP-62 = test system: HOP-62
EKVX = test system: EKVX
NCI-H460 = test system: NCI-H460
HCT-15 = test system: HCT-15
COLO 205 = test system: COLO 205
BT-549 = test system: BT-549
M14 = test system: M14
SNB-19 = test system: SNB-19
DU-145 = test system: DU-145

COC(=O)c1ccc(NC(=O)O/N=C(\Cl)C(C)C)cc1
GI50 (MDA-MB-231): 7.08 µM (inactive)
GI50 (UACC-257): 15.2 µM (inactive)
GI50 (SNB-75): 7.78 µM (inactive)
GI50 (NCI/ADR-RES): 5.71 µM (inactive)
GI50 (UACC-62): 13.1 µM (inactive)
GI50 (CAKI-1): 1.69 µM (inactive)
GI50 (LOX IMVI): 1.74 µM (inactive)
GI50 (SK-MEL-5): 4.53 µM (inactive)
GI50 (HCC 2998): 14.7 µM (inactive)
GI50 (OVCAR-5): 17.1 µM (inactive)
GI50 (HT-29): 4.31 µM (inactive)
GI50 (HOP-62): 18.7 µM (inactive)
GI50 (EKVX): 3.22 µM (inactive)
GI50 (NCI-H460): 20.9 µM (inactive)
GI50 (HCT-15): 1.83 µM
GI50 (COLO 205): 1.94 µM (inactive)
GI50 (BT-549): 2.67 µM (inactive)
GI50 (M14): 2.99 µM (inactive)
GI50 (SNB-19): 16.9 µM (inactive)
GI50 (DU-145): 18.5 µM (inactive)

CN(C)CC1CN(C(=O)Nc2ccccc2)C(=N)O1 (stereo not given)
GI50 (MDA-MB-231): > 100 µM (inactive)
GI50 (UACC-257): > 100 µM (inactive)
GI50 (SNB-75): > 100 µM (inactive)
GI50 (NCI/ADR-RES): > 100 µM (inactive)
GI50 (UACC-62): > 100 µM (inactive)
GI50 (CAKI-1): > 100 µM (inactive)
GI50 (LOX IMVI): > 100 µM (inactive)
GI50 (SK-MEL-5): > 100 µM (inactive)
GI50 (HCC 2998): > 100 µM (inactive)
GI50 (OVCAR-5): > 100 µM (inactive)
GI50 (HT-29): > 100 µM (inactive)
GI50 (HOP-62): > 100 µM (inactive)
GI50 (EKVX): > 100 µM (inactive)
GI50 (NCI-H460): > 100 µM (inactive)
GI50 (HCT-15): > 100 µM
GI50 (COLO 205): > 100 µM (inactive)
GI50 (BT-549): > 100 µM (inactive)
GI50 (M14): > 100 µM (inactive)
GI50 (SNB-19): > 100 µM (inactive)
GI50 (DU-145): 38.2 µM (inactive)

O=C(NC(c1ccccc1)C(O)C(=O)OCc1ccc2c(c1)C(=O)c1ccccc1C2=O)c1ccccc1 (stereo not given)
GI50 (MDA-MB-231): 15 µM (inactive)
GI50 (UACC-257): 28.5 µM (inactive)
GI50 (SNB-75): 4.37 µM (inactive)
GI50 (NCI/ADR-RES): 4.35 µM (inactive)
GI50 (UACC-62): 14.7 µM (inactive)
GI50 (CAKI-1): 8.65 µM (inactive)
GI50 (LOX IMVI): 13.2 µM (inactive)
GI50 (SK-MEL-5): 13.6 µM (inactive)
GI50 (HCC 2998): 39.6 µM (inactive)
GI50 (OVCAR-5): 58.7 µM (inactive)
GI50 (HT-29): 61.4 µM (inactive)
GI50 (HOP-62): 3.62 µM (inactive)
GI50 (EKVX): 24.7 µM (inactive)
GI50 (NCI-H460): 14.9 µM (inactive)
GI50 (HCT-15): > 95.3 µM
GI50 (COLO 205): 48.4 µM (inactive)
GI50 (BT-549): 35.3 µM (inactive)
GI50 (M14): 36.1 µM (inactive)
GI50 (SNB-19): 5.47 µM (inactive)
GI50 (DU-145): 54.7 µM (inactive)

O=P(O)(O)OP(=O)(O)O
GI50 (MDA-MB-231): > 100 µM (inactive)
GI50 (UACC-257): > 100 µM (inactive)
GI50 (SNB-75): > 100 µM (inactive)
GI50 (NCI/ADR-RES): > 100 µM (inactive)
GI50 (UACC-62): > 100 µM (inactive)
GI50 (CAKI-1): > 100 µM (inactive)
GI50 (LOX IMVI): > 100 µM (inactive)
GI50 (SK-MEL-5): > 100 µM (inactive)
GI50 (HCC 2998): > 100 µM (inactive)
GI50 (OVCAR-5): > 100 µM (inactive)
GI50 (HT-29): > 100 µM (inactive)
GI50 (HOP-62): > 100 µM (inactive)
GI50 (EKVX): > 100 µM (inactive)
GI50 (NCI-H460): > 100 µM (inactive)
GI50 (HCT-15): > 100 µM
GI50 (COLO 205): > 100 µM (inactive)
GI50 (BT-549): > 100 µM (inactive)
GI50 (M14): > 100 µM (inactive)
GI50 (SNB-19): > 100 µM (inactive)
GI50 (DU-145): > 100 µM (inactive)

COc1ccc(P2(=S)OCCOP(=S)(c3ccc(OC)cc3)S2)cc1 (stereo not given)
GI50 (MDA-MB-231): 3.13 µM (inactive)
GI50 (UACC-257): 11.2 µM (inactive)
GI50 (SNB-75): > 52.7 µM (inactive)
GI50 (NCI/ADR-RES): 4.41 µM (inactive)
GI50 (UACC-62): 4.16 µM (inactive)
GI50 (CAKI-1): 2.31 µM (inactive)
GI50 (LOX IMVI): 2.84 µM (inactive)
GI50 (SK-MEL-5): 3.02 µM (inactive)
GI50 (HCC 2998): 2.87 µM (inactive)
GI50 (OVCAR-5): > 100 µM (inactive)
GI50 (HT-29): 2.64 µM (inactive)
GI50 (HOP-62): 3.58 µM (inactive)
GI50 (EKVX): > 21.8 µM (inactive)
GI50 (NCI-H460): 2.65 µM (inactive)
GI50 (HCT-15): 2.29 µM
GI50 (COLO 205): 3.56 µM (inactive)
GI50 (BT-549): 13.9 µM (inactive)
GI50 (M14): 5.14 µM (inactive)
GI50 (SNB-19): 3.71 µM (inactive)
GI50 (DU-145): 3.74 µM (inactive)

CNC(=O)OCc1nc(SSC(C)(C)C)n(C)c1COC(=O)NC
GI50 (MDA-MB-231): 2.24 µM (inactive)
GI50 (UACC-257): 2.94 µM (inactive)
GI50 (SNB-75): 8.57 µM (inactive)
GI50 (NCI/ADR-RES): 5.52 µM (inactive)
GI50 (UACC-62): 1.95 µM (inactive)
GI50 (CAKI-1): 1.82 µM (inactive)
GI50 (LOX IMVI): 3.58 µM (inactive)
GI50 (SK-MEL-5): 5.98 µM (inactive)
GI50 (HCC 2998): 8.91 µM (inactive)
GI50 (OVCAR-5): 10.4 µM (inactive)
GI50 (HT-29): 5.56 µM (inactive)
GI50 (HOP-62): 12.8 µM (inactive)
GI50 (EKVX): 8.28 µM (inactive)
GI50 (NCI-H460): 10.7 µM (inactive)
GI50 (HCT-15): 1.84 µM
GI50 (COLO 205): 1.59 µM (inactive)
GI50 (BT-549): 1.47 µM (inactive)
GI50 (M14): 1.71 µM (inactive)
GI50 (SNB-19): 18 µM (inactive)
GI50 (DU-145): 19.1 µM (inactive)

CN(C)CCCSc1nc2ccccc2[nH]1
GI50 (MDA-MB-231): > 100 µM (inactive)
GI50 (UACC-257): > 100 µM (inactive)
GI50 (SNB-75): > 100 µM (inactive)
GI50 (NCI/ADR-RES): > 100 µM (inactive)
GI50 (UACC-62): > 100 µM (inactive)
GI50 (CAKI-1): > 100 µM (inactive)
GI50 (LOX IMVI): > 100 µM (inactive)
GI50 (SK-MEL-5): > 100 µM (inactive)
GI50 (HCC 2998): > 100 µM (inactive)
GI50 (OVCAR-5): > 100 µM (inactive)
GI50 (HT-29): > 100 µM (inactive)
GI50 (HOP-62): > 100 µM (inactive)
GI50 (EKVX): > 100 µM (inactive)
GI50 (NCI-H460): > 100 µM (inactive)
GI50 (HCT-15): > 100 µM
GI50 (COLO 205): > 100 µM (inactive)
GI50 (BT-549): > 100 µM (inactive)
GI50 (M14): > 100 µM (inactive)
GI50 (SNB-19): > 100 µM (inactive)
GI50 (DU-145): > 100 µM (inactive)

O=C(NC(Cc1c[nH]c2ccccc12)C(=O)O)/C(=C/c1ccccc1)NC(=O)c1ccccc1 (stereo not given)
GI50 (MDA-MB-231): > 44.6 µM (inactive)
GI50 (UACC-257): > 88.7 µM (inactive)
GI50 (SNB-75): 32.7 µM (inactive)
GI50 (NCI/ADR-RES): 36.6 µM (inactive)
GI50 (UACC-62): 41.2 µM (inactive)
GI50 (CAKI-1): > 95.1 µM (inactive)
GI50 (LOX IMVI): > 100 µM (inactive)
GI50 (SK-MEL-5): 37 µM (inactive)
GI50 (HCC 2998): 78.3 µM (inactive)
GI50 (OVCAR-5): 56.1 µM (inactive)
GI50 (HT-29): 66.7 µM (inactive)
GI50 (HOP-62): 41.3 µM (inactive)
GI50 (EKVX): 42.7 µM (inactive)
GI50 (NCI-H460): 68.1 µM (inactive)
GI50 (HCT-15): > 55.1 µM
GI50 (COLO 205): > 100 µM (inactive)
GI50 (BT-549): 43.8 µM (inactive)
GI50 (M14): 46 µM (inactive)
GI50 (SNB-19): > 92 µM (inactive)
GI50 (DU-145): 79.8 µM (inactive)

O=Cc1cc(C(=O)OCc2ccccc2)n(S(=O)(=O)c2ccccc2)c1
GI50 (MDA-MB-231): 37.7 µM (inactive)
GI50 (UACC-257): 24.7 µM (inactive)
GI50 (SNB-75): 23.1 µM (inactive)
GI50 (NCI/ADR-RES): 31 µM (inactive)
GI50 (UACC-62): 11 µM (inactive)
GI50 (CAKI-1): 29.4 µM (inactive)
GI50 (LOX IMVI): 10.3 µM (inactive)
GI50 (SK-MEL-5): 4.84 µM (inactive)
GI50 (HCC 2998): 17 µM (inactive)
GI50 (OVCAR-5): 18.6 µM (inactive)
GI50 (HT-29): 21.7 µM (inactive)
GI50 (HOP-62): 13.2 µM (inactive)
GI50 (EKVX): 23.3 µM (inactive)
GI50 (NCI-H460): 23.7 µM (inactive)
GI50 (HCT-15): 11.1 µM
GI50 (COLO 205): 26.1 µM (inactive)
GI50 (BT-549): 16 µM (inactive)
GI50 (M14): 14.8 µM (inactive)
GI50 (SNB-19): 29.2 µM (inactive)
GI50 (DU-145): 37 µM (inactive)

CCc1ccc2c(c1)/C(=C1/Nc3ccccc3C1=O)C(=O)N2
GI50 (MDA-MB-231): 34 µM (inactive)
GI50 (UACC-257): 30.5 µM (inactive)
GI50 (SNB-75): 22.3 µM (inactive)
GI50 (NCI/ADR-RES): 28.7 µM (inactive)
GI50 (UACC-62): 15.4 µM (inactive)
GI50 (CAKI-1): 17.2 µM (inactive)
GI50 (LOX IMVI): 50.7 µM (inactive)
GI50 (SK-MEL-5): 9.62 µM (inactive)
GI50 (HCC 2998): 15.7 µM (inactive)
GI50 (OVCAR-5): 44.9 µM (inactive)
GI50 (HT-29): 25.4 µM (inactive)
GI50 (HOP-62): 14.2 µM (inactive)
GI50 (EKVX): 5.36 µM (inactive)
GI50 (NCI-H460): 23.3 µM (inactive)
GI50 (HCT-15): 31.7 µM
GI50 (COLO 205): 14.5 µM (inactive)
GI50 (BT-549): 25.1 µM (inactive)
GI50 (M14): 26.7 µM (inactive)
GI50 (SNB-19): 11 µM (inactive)
GI50 (DU-145): 41.3 µM (inactive)
